Legend:
[1] = biological target: T1, Recombinant STAT3 protein (STAT3(G127-I722)) (Homo sapiens, UniProt P40763); experiment: STAT3 Fluorescence Polarization (FP) Assay; type: binding; conditions: STAT3(G127-I722) 25 nM, probe 5-FAM-GpYLPQTV-NH2 2 nM, 45-minute incubation
T1 construct: Recombinant STAT3 protein (STAT3(G127-I722))
Procedure, shortened: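 STAT3(G127-I722), 25 nM, was mixed with 2 nM 5-FAM-GpYLPQTV-NH2 probe in HEPES pH 7.4 buffer with 1% DMSO and serially diluted compound. FP (mP) was read after 45 min at room temperature. IC50 came from nonlinear regression.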

[2] = biological target: T2, Recombinant STAT6 protein (STAT6(W123-T658)) (Homo sapiens, UniProt P42226); experiment: STAT6 Fluorescence Polarization (FP) Assay; type: binding; conditions: STAT6(W123-T658) 250 nM, probe 5-FAM-ApYKPFQDLI-NH2 2 nM, 45-minute incubation
T2 construct: Recombinant STAT6 protein (STAT6(W123-T658))
T2 sequence (P42226 123-658): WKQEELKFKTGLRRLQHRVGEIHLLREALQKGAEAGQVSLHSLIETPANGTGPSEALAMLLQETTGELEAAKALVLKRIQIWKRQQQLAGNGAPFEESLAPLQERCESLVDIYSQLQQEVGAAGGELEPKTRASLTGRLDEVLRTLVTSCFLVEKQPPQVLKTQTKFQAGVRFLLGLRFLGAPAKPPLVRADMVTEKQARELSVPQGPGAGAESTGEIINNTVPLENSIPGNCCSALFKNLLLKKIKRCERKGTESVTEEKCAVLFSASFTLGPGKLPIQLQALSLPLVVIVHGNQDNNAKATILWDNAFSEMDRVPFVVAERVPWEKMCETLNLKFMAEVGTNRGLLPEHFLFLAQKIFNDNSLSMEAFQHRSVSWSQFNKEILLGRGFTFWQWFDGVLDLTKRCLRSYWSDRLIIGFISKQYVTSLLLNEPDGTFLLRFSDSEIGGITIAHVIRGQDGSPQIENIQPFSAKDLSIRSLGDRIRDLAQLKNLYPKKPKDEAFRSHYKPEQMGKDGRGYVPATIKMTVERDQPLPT
Procedure, shortened: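 Displacement of a fluorescent phosphotyrosine peptide (5-FAM-ApYKPFQDLI-NH2, 2 nM) from STAT6(W123-T658) (250 nM), 1% DMSO, pH 7.4 HEPES buffer. After 45 min at room temperature, polarization (mP) was plotted versus log compound concentration and fitted by nonlinear regression to give IC50.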

T1 sequence (P40763 127-722): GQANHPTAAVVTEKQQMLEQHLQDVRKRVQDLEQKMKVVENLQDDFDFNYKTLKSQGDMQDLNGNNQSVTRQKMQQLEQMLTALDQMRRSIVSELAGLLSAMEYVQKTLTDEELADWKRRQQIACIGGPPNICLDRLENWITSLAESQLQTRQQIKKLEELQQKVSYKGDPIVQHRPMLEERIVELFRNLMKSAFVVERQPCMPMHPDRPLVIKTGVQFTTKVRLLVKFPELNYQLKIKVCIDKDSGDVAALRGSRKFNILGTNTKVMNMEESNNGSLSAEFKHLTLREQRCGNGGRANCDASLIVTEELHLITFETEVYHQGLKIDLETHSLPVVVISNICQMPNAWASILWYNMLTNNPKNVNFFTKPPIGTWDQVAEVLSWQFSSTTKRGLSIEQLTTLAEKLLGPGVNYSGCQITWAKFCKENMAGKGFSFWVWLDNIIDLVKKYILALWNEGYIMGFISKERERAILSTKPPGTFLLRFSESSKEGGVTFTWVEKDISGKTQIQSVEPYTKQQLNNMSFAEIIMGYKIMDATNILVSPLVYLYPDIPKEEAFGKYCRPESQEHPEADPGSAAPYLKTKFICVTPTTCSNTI

SMILES	IC50 [1]	IC50 [2]
CC(=O)N1CC[C@H]2CC[C@@H](C(=O)Nc3ccc4nccn4c3)N2C(=O)[C@@H](NC(=O)c2cc3cc(C(F)(F)P(=O)(O)O)ccc3s2)C1 [Compound 72, ((2-(((5S,8S,10aR)-3-acetyl-8-(imidazo[1,2-a]pyridin-6-ylcarbamoyl)-6-oxodecahydropyrrolo[1,2-a][1,5]diazocin-5-yl)carbamoyl)benzo[b]thiophen-5-yl)difluoromethyl)phosphonic acid]	1 to 10 µM	0.3 to 3 µM
CC(=O)N1CC[C@H]2CC[C@@H](C(=O)N3CC[C@H](Cc4cccnc4)C3)N2C(=O)[C@@H](NC(=O)c2cc3cc(C(F)(F)P(=O)(O)O)ccc3s2)C1 (single isomer, unassigned) [Compound 65, ((2-(((5S,8S,10aR)-3-acetyl-6-oxo-8-((S)-3-(pyridin-3-ylmethyl)pyrrolidine-1-carbonyl)decahydropyrrolo[1,2-a][1,5]diazocin-5-yl)carbamoyl)benzo[b]thiophen-5-yl)difluoromethyl)phosphonic acid or ((2-(((5S,8S,10aR)-3-acetyl-6-oxo-8-((R)-3-(pyridin-3-ylmethyl)pyrrolidine-1-carbonyl)decahydropyrrolo[1,2-a][1,5]diazocin-5-yl)carbamoyl)benzo[b]thiophen-5-yl)difluoromethyl)phosphonic acid]	1 to 10 µM	0.3 to 3 µM
CC(=O)N1CC[C@H]2CC[C@@H](C(=O)N3C[C@H](c4ccccc4)[C@@H](C#N)C3)N2C(=O)[C@@H](NC(=O)c2ccc3ccc(C(F)(F)P(=O)(O)O)cc3c2)C1 (relative stereo) [Compound 203, ((7-(((5S,8S,10aR)-3-acetyl-8-(rel-trans)-3-cyano-4-phenylpyrrolidine-1-carbonyl)-6-oxodecahydropyrrolo[1,2-a][1,5]diazocin-5-yl)carbamoyl)naphthalen-2-yl)difluoromethyl)phosphonic acid]	1 to 10 µM	≤ 0.3 µM
CCCS(=O)(=O)N1CC[C@H]2CC[C@@H](C(=O)N3CCOCC3)N2C(=O)[C@@H](NC(=O)c2ccc3ccc(C(F)P(=O)(O)O)cc3c2)C1 (stereo partly drawn) [Compound 361, (fluoro(7-(((5S,8S,10aR)-8-(morpholine-4-carbonyl)-6-oxo-3-(propylsulfonyl)decahydropyrrolo[1,2-a] [1,5]diazocin-5-yl)carbamoyl)naphthalen-2-yl)methyl)phosphonic acid]	> 10 µM	3 to 30 µM
CC(=O)N1CC[C@H]2CC[C@@H](C(=O)N3CCC[C@@H](c4ccccc4)C3)N2C(=O)[C@@H](NC(=O)c2cc3cc(C(F)(F)P(=O)(O)O)ccc3[nH]2)C1 [Compound 107, ((2-(((5S,8S,10aR)-3-acetyl-6-oxo-8-((S)-3-phenylpiperidine-1-carbonyl)decahydropyrrolo[1,2-a][1,5]diazocin-5-yl)carbamoyl)-1H-indol-5-yl)difluoromethyl)phosphonic acid]	1 to 10 µM	≤ 0.3 µM
CC(=O)N1CC[C@H]2CC[C@@H](C(=O)N3CC[C@H](C(=O)N4CCCCC4)C3)N2C(=O)[C@@H](NC(=O)c2cc3cc(C(F)(F)P(=O)(O)O)ccc3s2)C1 [Compound 193, ((2-(((5S,8S,10aR)-3-acetyl-6-oxo-8-((S)-3-(piperidine-1-carbonyl)pyrrolidine-1-carbonyl)decahydropyrrolo[1,2-a][1,5]diazocin-5-yl)carbamoyl)benzo[b]thiophen-5-yl)difluoromethyl)phosphonic acid]	0.1 to 1 µM	0.3 to 3 µM
COc1ccccc1N(C)C(=O)[C@@H]1CC[C@@H]2CCN(C(C)=O)C[C@H](NC(=O)c3cc4cc(C(F)(F)P(=O)(O)O)ccc4[nH]3)C(=O)N21 [Compound 164, ((2-(((5S,8S,10aR)-3-acetyl-8-((2-methoxyphenyl)(methyl)carbamoyl)-6-oxodecahydropyrrolo[1,2-a][1,5]diazocin-5-yl)carbamoyl)-1H-indol-5-yl)difluoromethyl)phosphonic acid]	1 to 10 µM	0.3 to 3 µM
CC(=O)N1CC[C@H]2CC[C@@H](C(=O)N(C)c3ccc(C(C)(C)C)cc3)N2C(=O)[C@@H](NC(=O)c2ccc3ccc(C(F)(F)P(=O)(O)O)cc3c2)C1 [Compound 117, ((7-(((5S,8S,10aR)-3-acetyl-8-((4-(tert-butyl)phenyl)(methyl)carbamoyl)-6-oxodecahydropyrrolo[1,2-a][1,5]diazocin-5-yl)carbamoyl)naphthalen-2-yl)difluoromethyl)phosphonic acid]	> 10 µM	0.3 to 3 µM

Second part, the molecule after the results:

IC50 [1]	IC50 [2]	SMILES
> 10 µM	≤ 0.3 µM	CC(=O)N1CC[C@H]2CC[C@@H](C(=O)N3CC(c4ccn(C)c(=O)c4)CC34CC4)N2C(=O)[C@@H](NC(=O)c2ccc3ccc(C(F)P(=O)(O)O)cc3c2)C1 (stereo partly drawn) [Compound 354, ((7-(((5S,8S,10a R)-3-acetyl-8-(6-(1-methyl-2-oxo-1,2-dihydropyridin-4-yl)-4-azaspiro[2.4]heptane-4-carbonyl)-6-oxodeca-hydropyrrolo [1,2-a][1,5]diazocin-5-yl)carbamoyl)naphthalen-2-yl)fluoromethyl) phosphonic acid]
1 to 10 µM	0.3 to 3 µM	CCC(=O)NCCCN(C)C(=O)[C@@H]1CC[C@@H]2CCN(C(C)=O)C[C@H](NC(=O)c3cc4cc(C(F)(F)P(=O)(O)O)ccc4[nH]3)C(=O)N21 [Compound 28, ((2-(((5S,8S,10aR)-3-acetyl-8-(methyl(3-propionamidopropyl)carbamoyl)-6-oxodecahydropyrrolo[1,2-a][1,5]diazocin-5-yl)carbamoyl)-1H-indol-5-yl)difluoromethyl)phosphonic acid]
1 to 10 µM	0.3 to 3 µM	C[C@@H](Cc1ccccc1)C(=O)N1CC[C@H]2CC[C@@H](C(=O)N3CCCC3)N2C(=O)[C@@H](NC(=O)c2cc3cc(C(F)(F)P(=O)(O)O)ccc3s2)C1 [Compound 258, (difluoro(2-(((5S,8S,10aR)-3-((S)-2-methyl-3-phenylpropanoyl)-6-oxo-8-(pyrrolidine-1-carbonyl)decahydropyrrolo[1,2-a][1,5]diazocin-5-yl)carbamoyl)benzo[b]thiophen-5-yl)methyl)phosphonic acid]
> 10 µM	3 to 30 µM	CC(=O)N1CC[C@H]2CC[C@@H](C(=O)N(C)c3ccccc3)N2C(=O)[C@@H](NC(=O)c2cc3cc(C(C)(F)P(=O)(O)O)ccc3s2)C1 (stereo partly drawn) [Compound 18, (1-(2-(((5S,8S,10aR)-3-acetyl-8-(methyl(phenyl)carbamoyl)-6-oxodecahydropyrrolo[1,2-a][1,5]diazocin-5-yl)carbamoyl)benzo[b]thiophen-5-yl)-1-fluoroethyl)phosphonic acid]
1 to 10 µM	0.3 to 3 µM	COC(=O)N1CC[C@H]2CC[C@@H](C(=O)N3CCCC3)N2C(=O)[C@@H](NC(=O)c2cc3cc(C(F)(F)P(=O)(O)O)ccc3s2)C1 [Compound 262, (difluoro(2-(((5S,8S,10aR)-3-(methoxycarbonyl)-6-oxo-8-(pyrrolidine-1-carbonyl)decahydropyrrolo[1,2-a][1,5]diazocin-5-yl)carbamoyl)benzo[b]thiophen-5-yl)methyl)phosphonic acid]

— patent US20250179103A1, “6-OXODECAHYDROPYRROLO[1,2-A][1,5]DIAZOCINE AND 6-OXODECAHYDRO-4H-PYRROLO[2,1-D][1,5]THIAZOCINE DERIVATIVES AS STAT3 AND STAT6 MODULATORS FOR THE TREATMENT OF CANCER AND INFLAMMATORY CONDITIONS” (Recludix Pharma, Inc., priority 2022, published 2025)
